These results are taken from patent US9289437B2, “Method for preparation of a controlled release system” (Cristal Delivery B.V., priority 2008, dated 2016).

For this data set the following is noted: 6 hours after intravenous administration, B16F10 tumor-bearing mice.

For `C[C@@H]1C[C@H]2[C@@H]3CCC4=CC(=O)C=C[C@]4(C)[C@@]3(F)[C@@H](O)C[C@]2(C)[C@@]1(O)C(=O)CO` [free dexamethasone, dexamethasone], the “fraction still residing in the blood stream” value is 0.3%.
